In US10722501B2 (BAYER AKTIENGESELLSCHAFT, priority 2016, dated 2020):

Target: T1, recombinant full-length human prolyl endopeptidase (PREP) (Homo sapiens, UniProt P48147)
T1 construct: To recombinant full-length human prolyl endopeptidase (PREP, R&D-Systems, 4308-SE); purchased R&D-Systems 4308-SE
T1 sequence (P48147 1-710): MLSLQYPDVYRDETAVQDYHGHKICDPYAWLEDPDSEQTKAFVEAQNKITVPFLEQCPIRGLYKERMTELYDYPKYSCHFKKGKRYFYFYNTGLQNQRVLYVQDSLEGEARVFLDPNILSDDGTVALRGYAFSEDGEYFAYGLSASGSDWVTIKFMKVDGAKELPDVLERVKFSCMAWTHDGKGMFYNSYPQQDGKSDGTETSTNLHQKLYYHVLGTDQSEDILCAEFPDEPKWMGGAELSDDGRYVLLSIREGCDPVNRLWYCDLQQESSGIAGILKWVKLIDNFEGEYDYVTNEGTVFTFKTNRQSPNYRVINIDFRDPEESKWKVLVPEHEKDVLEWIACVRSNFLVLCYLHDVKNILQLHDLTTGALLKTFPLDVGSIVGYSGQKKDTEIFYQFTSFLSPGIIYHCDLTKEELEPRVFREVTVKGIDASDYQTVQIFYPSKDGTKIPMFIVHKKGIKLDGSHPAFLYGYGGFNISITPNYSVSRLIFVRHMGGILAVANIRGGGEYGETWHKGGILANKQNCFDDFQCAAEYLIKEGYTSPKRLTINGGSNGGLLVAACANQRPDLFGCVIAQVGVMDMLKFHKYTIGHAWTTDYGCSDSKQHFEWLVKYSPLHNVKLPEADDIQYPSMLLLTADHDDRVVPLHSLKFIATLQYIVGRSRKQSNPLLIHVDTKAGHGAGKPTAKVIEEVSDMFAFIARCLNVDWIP
Experiment: Biochemical human prolyl endopeptidase (PREP) assay with fluorescently labelled substrate
Conditions: substrate Z-Gly-Pro-AMC 50 μM, 32° C., 60 min; some as mean values from multiple independent determinations
Procedure, shortened: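 0.4 nM (final, example) recombinant PREP in pH 7.5 Tris buffer with EDTA, GSH, BSA and Brij-35; compounds at 1 nM to 30 μM. Reaction started with 50 μM Z-Gly-Pro-AMC and followed by fluorescence (ex 360/em 465 nm) at 32° C for 60 min. IC50 interpolated from percent activity based on initial slopes.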

Row | Structure (SMILES) | IC50
1 | O=C(C1C(C(F)(F)F)CCc2nn(Cc3ncc(Cl)cc3Cl)c(=O)n21)N1C[C@@H](F)[C@@H](F)C1 (mixture of isomers) [Example 287, (5RS,6RS)-2-[(3,5-Dichloropyridin-2-yl)methyl]-5-{[(3R,4S)-3,4-difluoropyrrolidin-1-yl]carbonyl}-6-(trifluoromethyl)-5,6,7,8-tetrahydro[1,2,4]triazolo[4,3-a]pyridin-3(2H)-one] | 0.023 µM
2 | O=C(C1C(C(F)(F)F)CCc2nn(Cc3ncc(Cl)cc3Cl)c(=O)n21)N1CCC(F)(F)C1 (racemic) [Example 289, (5RS,6RS)-2-[(3,5-Dichloropyridin-2-yl)methyl]-5-[(3,3-difluoropyrrolidin-1-yl)carbonyl]-6-(trifluoromethyl)-5,6,7,8-tetrahydro[1,2,4]triazolo[4,3-a]pyridin-3(2H)-one] | 0.117 µM
3 | O=C(C1C(C(F)(F)F)CCc2nn(Cc3ncc(Cl)cc3F)c(=O)n21)N1C[C@@H](F)[C@@H](F)C1 (mixture of isomers) [Example 291, (5RS,6RS)-2-[(5-Chloro-3-fluoropyridin-2-yl)methyl]-5-{[(3R,4S)-3,4-difluoropyrrolidin-1-yl]carbonyl}-6-(trifluoromethyl)-5,6,7,8-tetrahydro[1,2,4]triazolo[4,3-a]pyridin-3(2H)-one] | 0.0965 µM
4 | O=C(C1C(C(F)(F)F)CCc2nn(Cc3ncc(Cl)cc3F)c(=O)n21)N1CC[C@H](F)C1 (mixture of isomers) [Example 294, (5RS,6RS)-2-[(5-Chloro-3-fluoropyridin-2-yl)methyl]-5-{[(3S)-3-fluoropyrrolidin-1-yl]carbonyl}-6-(trifluoromethyl)-5,6,7,8-tetrahydro[1,2,4]triazolo[4,3-a]pyridin-3(2H)-one] | 0.02 µM
5 | O=C(C1C(C(F)(F)F)CCc2nn(Cc3ncc(Cl)cc3F)c(=O)n21)N1CCC(F)(F)C1 (racemic) [Example 296, (5RS,6RS)-2-[(5-Chloro-3-fluoropyridin-2-yl)methyl]-5-[(3,3-difluoropyrrolidin-1-yl)carbonyl]-6-(trifluoromethyl)-5,6,7,8-tetrahydro[1,2,4]triazolo[4,3-a]pyridin-3(2H)-one] | 0.18 µM
6 | O=C(C1C(C(F)(F)F)CCc2nn(Cc3ccc(Cl)cn3)c(=O)n21)N1CC[C@H](F)C1 (mixture of isomers) [Example 298, (5RS,6RS)-2-[(5-Chloropyridin-2-yl)methyl]-5-{[(3S)-3-fluoropyrrolidin-1-yl]carbonyl}-6-(trifluoromethyl)-5,6,7,8-tetrahydro[1,2,4]triazolo[4,3-a]pyridin-3(2H)-one] | 0.024 µM
7 | O=C(C1C(C(F)(F)F)CCc2nn(Cc3ccc(Cl)cn3)c(=O)n21)N1C[C@@H](F)[C@@H](F)C1 (mixture of isomers) [Example 300, (5RS,6RS)-2-[(5-Chloropyridin-2-yl)methyl]-5-{[(3R,4S)-3,4-difluoropyrrolidin-1-yl]carbonyl}-6-(trifluoromethyl)-5,6,7,8-tetrahydro[1,2,4]triazolo[4,3-a]pyridin-3(2H)-one] | 0.019 µM
8 | O=C(C1C(C(F)(F)F)CCc2nn(Cc3ccnc(C(F)(F)F)c3F)c(=O)n21)N1CC(F)C1 (racemic) [Example 302, (5RS,6RS)-5-[(3-Fluoroazetidin-1-yl)carbonyl]-2-{[3-fluoro-2-(trifluoromethyl)pyridin-4-yl]methyl}-6-(trifluoromethyl)-5,6,7,8-tetrahydro[1,2,4]triazolo[4,3-a]pyridin-3(2H)-one] | 0.0495 µM
9 | O=C(C1C(C(F)(F)F)CCc2nn(Cc3ccc(C(F)(F)F)nc3)c(=O)n21)N1CC(F)C1 (racemic) [Example 304, (5RS,6RS)-5-[(3-Fluoroazetidin-1-yl)carbonyl]-6-(trifluoromethyl)-2-{[6-(trifluoromethyl)pyridin-3-yl]methyl}-5,6,7,8-tetrahydro[1,2,4]triazolo[4,3-a]pyridin-3(2H)-one] | 0.035 µM
10 | O=C(C1C(C(F)(F)F)CCc2nn(Cc3ncc(Cl)cc3Cl)c(=O)n21)N1CC(F)C1 (racemic) [Example 306, (5RS,6RS)-2-[(3,5-Dichloropyridin-2-yl)methyl]-5-[(3-fluoroazetidin-1-yl)carbonyl]-6-(trifluoromethyl)-5,6,7,8-tetrahydro[1,2,4]triazolo[4,3-a]pyridin-3(2H)-one] | 0.215 µM
11 | O=C(C1C(C(F)(F)F)CCc2nn(Cc3ncc(Cl)cc3F)c(=O)n21)N1CC(F)C1 (racemic) [Example 308, (5RS,6RS)-2-[(5-Chloro-3-fluoropyridin-2-yl)methyl]-5-[(3-fluoroazetidin-1-yl)carbonyl]-6-(trifluoromethyl)-5,6,7,8-tetrahydro[1,2,4]triazolo[4,3-a]pyridin-3(2H)-one] | 0.125 µM
12 | O=C(C1C(C(F)(F)F)CCc2nn(Cc3ccc(Cl)cn3)c(=O)n21)N1CC(F)C1 (racemic) [Example 310, (5RS,6RS)-2-[(5-Chloropyridin-2-yl)methyl]-5-[(3-fluoroazetidin-1-yl)carbonyl]-6-(trifluoromethyl)-5,6,7,8-tetrahydro[1,2,4]triazolo[4,3-a]pyridin-3(2H)-one] | 0.015 µM

Compounds with a lower IC50, results first:

Row | IC50 | Structure (SMILES)
13 | 0.0089 µM | O=C(C1CC(C(F)(F)F)Cc2nn(Cc3ccc(C(F)(F)F)nc3)c(=O)n21)N1CCC(F)(F)C1 (racemic) [Example 312, (5RS,7RS)-5-[(3,3-Difluoropyrrolidin-1-yl)carbonyl]-7-(trifluoromethyl)-2-{[6-(trifluoromethyl)pyridin-3-yl]methyl}-5,6,7,8-tetrahydro[1,2,4]triazolo[4,3-a]pyridin-3(2H)-one]
14 | 0.0026 µM | O=C(C1CC(C(F)(F)F)Cc2nn(Cc3cncc(Cl)c3)c(=O)n21)N1CC[C@H](F)C1 (mixture of isomers) [Example 316, (5RS,7RS)-2-[(5-Chloropyridin-3-yl)methyl]-5-{[(3S)-3-fluoropyrrolidin-1-yl]carbonyl}-7-(trifluoromethyl)-5,6,7,8-tetrahydro[1,2,4]triazolo[4,3-a]pyridin-3(2H)-one]
15 | 0.0014 µM | O=C(C1CC(C(F)(F)F)Cc2nn(Cc3ccc(Cl)cn3)c(=O)n21)N1CC[C@H](F)C1 (mixture of isomers) [Example 314, (5RS,7RS)-2-[(5-Chloropyridin-2-yl)methyl]-5-{[(3S)-3-fluoropyrrolidin-1-yl]carbonyl}-7-(trifluoromethyl)-5,6,7,8-tetrahydro[1,2,4]triazolo[4,3-a]pyridin-3(2H)-one]
16 | 0.00093 µM | CC1CCC(C(=O)N2CC(F)C2)n2c1nn(Cc1ccc(F)c(Cl)c1)c2=O (racemic) [Example 321, (5RS,8RS)-2-(3-Chloro-4-fluorobenzyl)-5-[(3-fluoroazetidin-1-yl)carbonyl]-8-methyl-5,6,7,8-tetrahydro[1,2,4]triazolo[4,3-a]pyridin-3(2H)-one]
17 | 0.00069 µM | CC1CCC(C(=O)N2CC[C@H](F)C2)n2c1nn(Cc1ccc(F)c(Cl)c1)c2=O (mixture of isomers) [Example 320, (5RS,8RS)-2-(3-Chloro-4-fluorobenzyl)-5-{[(3S)-3-fluoropyrrolidin-1-yl]carbonyl}-8-methyl-5,6,7,8-tetrahydro[1,2,4]triazolo[4,3-a]pyridin-3(2H)-one]
18 | 0.00063 µM | CC1CCC(C(=O)N2C[C@@H](F)[C@@H](F)C2)n2c1nn(Cc1ccc(F)c(Cl)c1)c2=O (mixture of isomers) [Example 319, (5RS,8RS)-2-(3-Chloro-4-fluorobenzyl)-5-{[(3R,4S)-3,4-difluoropyrrolidin-1-yl]carbonyl}-8-methyl-5,6,7,8-tetrahydro[1,2,4]triazolo[4,3-a]pyridin-3(2H)-one]
